From patent US20050209157A1, “Short bioactive peptides and methods for their use” (priority 2001, published 2005)
≈ marks a conversion by molar mass, not a printed value. Like-named read-outs stand apart in the source and are kept apart here. No end group written: not given here.

What was measured:
[1] = system: S. aureus (MRSA); format: cell-based, Staphylococcus aureus; conditions: for S. aureus (MRSA) MIC: mean of three, 16 to 20 hours at 35° C.; for MIC S. aureus SAP0017: Table 13, strain SAP0017, in µg/mL
[2] = system: S. epidermidis C621; format: cell-based, Staphylococcus epidermidis; conditions: for S. epidermidis C621 MIC: mean of three, 16 to 20 hours at 35° C.; for MIC S. epidermis C621: Table 13, in µg/mL
[3] = system: S. pyogenes M76; test: Antimicrobial assays II, NCCLS broth microdilution MIC; format: cell-based, Streptococcus pyogenes; conditions: mean of three; 16 to 20 hours at 35° C.
[4] = system: S. pyogenes ATCC19615; test: as above; format: cell-based, Streptococcus pyogenes; conditions: mean of three, in µg/mL
[5] = system: S. pneumoniae C718; test: as above; format: cell-based, Streptococcus pneumoniae; conditions: mean of three
[6] = system: S. pneumoniae C719; test: as above; format: cell-based, Streptococcus pneumoniae; conditions: mean of three, in µg/mL
[7] = system: P. acne ATCC 6919; test: as above; format: cell-based, Propionibacterium acnes; conditions: mean of three, in µg/mL
[8] = system: BMKC; test: Anti-cancer assay, MTT, LD50; format: cell-based; conditions: BMKC cloned melanoma line, 24 hours with peptide
Source text: (§1) Numbers are LD50 values (μg/mL).

[9] = system: H1299; test: Anti-cancer assay, MTT, LD50; format: cell-based; conditions: 24 hours with peptide, lung large cell carcinoma
Source text: as §1

[10] = system: HeLaS3; test: Anti-cancer assay, MTT, LD50; format: cell-based; conditions: 24 hours with peptide, cervical carcinoma
Source text: as §1

[11] = system: MCF7; test: Anti-cancer assay, MTT, LD50; format: cell-based; conditions: MCF7 breast adenocarcinoma line, MTT, 24 hours with peptide
Source text: as §1

[12] = system: PC3; test: Anti-cancer assay, MTT, LD50; format: cell-based; conditions: 24 hours with peptide, prostate adenocarcinoma
Source text: as §1

[13] = system: SW480; test: Anti-cancer assay, MTT, LD50; format: cell-based; conditions: SW480 colon adenocarcinoma line, 24 hours with peptide
Source text: as §1

[14] = in vitro; format: cell-based, human; conditions: human, human red blood cells, pH 7, hemolytic assay, concentration at 50% hemolysis, 1 hour at 37° C.; read-out: LD50
[15] = system: P. aeruginosa H374; format: cell-based, Pseudomonas aeruginosa
Method in brief: (§2)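 Synergy against efflux-mutant strains: two-fold dilutions of nalidixic acid or chloramphenicol tested with peptide held at ¼ of its MIC.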

[16] = system: P. aeruginosa; format: cell-based, Pseudomonas aeruginosa; conditions: P. aeruginosa H744; MIC of nalidixic acid with peptide at ¼ MIC
Method in brief: as §2

[17] = system: WI38; conditions: MTT, 24 hours with peptide; normal fibroblast line
[18] = system: E. coli UB1005; format: cell-based, Escherichia coli; conditions: Table 12
[19] = system: S. typhimurium 14028S; format: cell-based, Salmonella typhimurium; conditions: Table 12
[20] = system: P. aeruginosa H374; format: cell-based, Pseudomonas aeruginosa; conditions: in µg/mL
[21] = system: Pseudomonas aeruginosa H187; format: cell-based; conditions: in µg/mL
[22] = system: Pseudomonas aeruginosa 100609; format: cell-based; conditions: Table 9; in µg/mL
[23] = system: Pseudomonas aeruginosa 105663; format: cell-based; conditions: Table 9; in µg/mL
[24] = system: Candida albicans 105; format: cell-based; conditions: Table 13; in µg/mL
[25] = system: Candida glabrata ATCC15126; test: Antimicrobial assays II, NCCLS broth microdilution MIC; format: cell-based; conditions: Table 13; in µg/mL
[26] = system: Pseudomonas aeruginosa ATCC 9027; test: Antimicrobial assay I, MIC by OD measurement; format: cell-based; conditions: 37° C. for 24 hours, absorbance 620 nm
[27] = system: Staphylococcus aureus ATCC 6538; test: Antimicrobial assay I, MIC by OD measurement; format: cell-based; conditions: 37° C. for 24 hours, absorbance 620 nm
[28] = system: yeast (Saccharomyces cerevisiae); test: Antimicrobial assay I, yeast assay in RPMI 1640; format: cell-based; conditions: RPMI 1640 media
[29] = in vitro; conditions: human, WI38 normal lung fibroblast cells, LD50 WI38, WI38 normal lung fibroblast line, MTT, 24 hours with peptide

Compound	MIC S. aureus SAP0017 [1]	MIC S. epidermis C621 [2]	MIC E. coli UB1005 [18]	MIC S. typhimurium 14028S [19]	MIC P. aeruginosa H374 ([20]; Table 9)	MIC P. aeruginosa H374 ([20]; Table 12)	MIC P. aeruginosa H187 ([21]; Table 9)	MIC P. aeruginosa H187 ([21]; Table 12)	MIC P. aeruginosa Tb 100609 [22]	MIC P. aeruginosa Tb 105663 [23]	MIC C. albicans 105 [24]	MIC C. glabrata ATCC15126 [25]	other results
FAKKFAKKFKKFAKKFAKFAFAF-NH2 [P301, reference compound]													S. aureus (MRSA) MIC [1]: 8 µg/mL; S. epidermidis C621 MIC [2]: 4 µg/mL; S. pyogenes M76 MIC [3]: 8 µg/mL; S. pyogenes MIC [4]: 8; S. pneumoniae MIC [5]: > 128 µg/mL; S. pneumoniae MIC [6]: 8; P. acne MIC [7]: 2; LD50 BMKC [8]: 140 µg/mL; H1299 LD50 [9]: 77 µg/mL; HeLaS3 LD50 [10]: 170 µg/mL; LD50 MCF7 [11]: 64 µg/mL; PC3 LD50 [12]: 45 µg/mL; LD50 SW480 [13]: 76 µg/mL; HC50 at 1 h [14]: 10 µg/mL; MIC Cm-comb. ([15]; MIC of chloramphenicol with peptide at ¼ MIC): 16 µg/mL; MIC Nal-comb. ([15]; MIC of nalidixic acid with peptide at ¼ MIC): 625 µg/mL; MIC Nal-comb. [16]: 624 µg/mL; WI38 LD50 [17]: 66 µg/mL
FAKKLAKKLAKLAL-NH2 [P45 (27)]	32	16	4 µg/mL	32 µg/mL	8	8	16	16	32	32	16	16	
FAKLLAKALKKFAL-NH2 [P119 (81)]	8	4	4 µg/mL	8 µg/mL	8	8	16	16	16	16	16	16	
FAKLLAKLAKKLL-NH2 [P43 (25)]	4	2	8 µg/mL	8 µg/mL	8	8	8	8	8	8	8	16	
CC(C)C[C@H](NC(=O)[C@H](C)NC(=O)[C@H](CC(C)C)NC(=O)[C@H](C)NC(=O)[C@H](CC(C)C)NC(=O)[C@H](CCCCN)NC(=O)[C@H](C)NC(=O)[C@H](CC(C)C)NC(=O)[C@H](CCCCN)NC(=O)[C@H](CCCCN)NC(=O)[C@H](C)NC(=O)[C@H](CC(C)C)NC(=O)[C@H](CCCCN)NC(=O)[C@H](C)NC(=O)[C@H](CC(C)C)NC(=O)[C@H](CCCCN)NC(=O)[C@H](CCCCN)NC(=O)[C@H](C)NC(=O)[C@@H](N)C(C)C)C(N)=O [P504 (155)]	4	4	4 µg/mL (≈ 2.01 µM)	4 µg/mL (≈ 2.01 µM)	8	8	8	8	8	16	64	64	
GIGKFLKKAKKFGKAFVKILKK-NH2 [P42 (24)]	16	2	4 µg/mL	8 µg/mL	4	4	8	8	8	8	32	64	
CC[C@H](C)[C@H](NC(=O)CNC(=O)[C@H](CC(C)C)NC(=O)[C@H](CCCCN)NC(=O)[C@H](C)NC(=O)[C@H](CC(C)C)NC(=O)[C@H](C)NC(=O)[C@@H](NC(=O)[C@H](CCCCN)NC(=O)[C@H](C)NC(=O)[C@@H](NC(=O)[C@@H](N)CCCCN)[C@@H](C)CC)C(C)C)C(=O)NCC(=O)N[C@@H](C)C(=O)N[C@H](C(=O)N[C@@H](CC(C)C)C(=O)N[C@@H](CCCCN)C(=O)N[C@H](C(=O)N[C@@H](CC(C)C)C(=O)N[C@H](C(=O)N[C@H](C(=O)NCC(=O)N[C@@H](CC(C)C)C(N)=O)[C@@H](C)O)[C@@H](C)O)C(C)C)C(C)C [P105]													paerug9027 (MIC) [26]: 200 µg/mL; staph6538 (MIC) [27]: 200 µg/mL; yeast (MIC or MFC) [28]: > (> indicates greater than 200 μg/mL); S. aureus (MRSA) MIC [1]: 32 µg/mL; S. epidermidis C621 MIC [2]: 8 µg/mL; S. pyogenes M76 MIC [3]: 16 µg/mL; S. pyogenes MIC [4]: 16; S. pneumoniae MIC [5]: 64 µg/mL; S. pneumoniae MIC [6]: 32; P. acne MIC [7]: 16; H1299 LD50 [9]: > (> indicates greater than 1000); HeLaS3 LD50 [10]: > (> indicates greater than 1000); LD50 MCF7 [11]: 635 µg/mL; LD50 SW480 [13]: > (> indicates greater than 1000); WI38 LD50 [17]: 430 µg/mL; CC50 at 24 h [29]: 430 µg/mL (≈ 189 µM)
